For 15 molecules, GI50 and TGI results are on record in PubChem BioAssay (NCI).

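Five compound concentrations were applied to cells in 96-well plates for 48 hours; endpoints were derived by simple linear interpolation of the resulting dose-response curve. GI50: concentration for 50% inhibition of growth. At the TGI there is no net growth.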 Where only a bound is given, the exact number is not on record here.

Among the test systems are HCC-2998 colon; HOP-92 NSCLC; KM12 colon; MOLT-4 leukemia; NCI-H226 lung; NCI-H522 lung; SF-539 CNS; TK-10 renal; UACC-62 melanoma; COLO 205 colon.
What all share (assay): NCI tumour cell line growth inhibition, 48 h

With `COc1ccc(OC)c(-c2cc(-c3ccc(Cl)cc3)nn2-c2ccc(S(N)(=O)=O)cc2)c1`, the GI50 is 7.51 µM with HCC-2998 colon; 19.2 µM with HOP-92 NSCLC; 5.16 µM in the test with KM12 colon; 3.52 µM in the test with MOLT-4 leukemia; 11.4 µM in the test on NCI-H226 lung; 7.99 µM with NCI-H522 lung. Also, the values for the GI50 with SF-539 CNS, with TK-10 renal and with UACC-62 melanoma were 17.6 µM, 6.56 µM and 2.98 µM, respectively. For the same molecule, the TGI in the test on HCC-2998 colon was 21.6 µM; with HOP-92 NSCLC, 62.5 µM; in the test on KM12 colon, 21.2 µM; with MOLT-4 leukemia, above 100 µM; in the test on NCI-H226 lung, 26.1 µM; in the test on NCI-H522 lung it was 45.3 µM. Further, the TGI amounted to 34.3 µM in the test with SF-539 CNS, 22.7 µM in the test with TK-10 renal and 12.1 µM in the test on UACC-62 melanoma.

On to `CCCCC#Cc1c(I)n(C2OC(CO[Si](C)(C)C(C)(C)C)C3OC(C)(C)OC32)c(=O)[nH]c1=O` (configuration not stated), for which the GI50 is 2.8 µM with HCC-2998 colon; 3.04 µM in the test with HOP-92 NSCLC; 11.7 µM in the test on KM12 colon; 1.77 µM with MOLT-4 leukemia; 12.7 µM in the test on NCI-H226 lung; 0.534 µM with NCI-H522 lung. The GI50 with TK-10 renal was 4.32 µM; in the test on UACC-62 melanoma, 11.8 µM. Also, the TGI with HCC-2998 colon is 16.5 µM; in the test with HOP-92 NSCLC it was 8.08 µM; in the test on KM12 colon it was 24.5 µM; with MOLT-4 leukemia it was 4.34 µM; with NCI-H226 lung it was 25.6 µM; with NCI-H522 lung it was 1.95 µM. In addition, the TGI in the test on TK-10 renal was 16.8 µM; in the test with UACC-62 melanoma, 24 µM.

Consider `COC(=O)C1=C(O)C(C(=O)OC)[C@@]2(O)[C@@H](C(=O)OC)C(c3ccc(OC(=O)C(Cc4ccccc4)NC(C)=O)cc3)C[C@@H]1[C@@H]2C(=O)OC` (some centres not stated), for which the GI50 with COLO 205 colon was 27.9 µM; in the test with HOP-92 NSCLC, 21.4 µM; in the test with KM12 colon, 15.3 µM; in the test on MOLT-4 leukemia it was 14.8 µM; in the test on NCI-H226 lung it was 25.5 µM; with NCI-H522 lung it was 28.3 µM. Besides, the figures for the GI50 in the test with SF-539 CNS, in the test with TK-10 renal and in the test on UACC-62 melanoma were 33.6 µM, 18.5 µM and 16.1 µM, respectively. Moreover, the TGI in the test with COLO 205 colon is above 100 µM; in the test with HOP-92 NSCLC it was 58.8 µM; in the test on KM12 colon, 41.3 µM; with MOLT-4 leukemia, 46.4 µM; with NCI-H226 lung, 75.1 µM; in the test with NCI-H522 lung, above 100 µM. In addition, the TGI in the test on SF-539 CNS is 73.1 µM; with TK-10 renal it was 44.1 µM; in the test on UACC-62 melanoma, 40.9 µM.

In the case of `COc1cc2c3c(c1OC)C1(C=CC(=O)C=C1)CC3N(C(=O)OC(C)(C)C(Cl)(Cl)Cl)CC2` (configuration not stated), the TGI in the test on COLO 205 colon was determined as 29 µM; with HOP-92 NSCLC, 29.8 µM; in the test on KM12 colon it was 23.2 µM; in the test with MOLT-4 leukemia, 17.9 µM; in the test on NCI-H226 lung it was 33.1 µM; with NCI-H522 lung, 23.2 µM. The TGI is 30.4 µM with SF-539 CNS, above 100 µM in the test with TK-10 renal and 28.4 µM in the test with UACC-62 melanoma.

`O=C(CC1Sc2ccccc2NC1=O)Nc1ccc([N+](=O)[O-])cc1[N+](=O)[O-]` (configuration not stated): the TGI in the test on COLO 205 colon is above 100 µM; with HCC-2998 colon it was above 100 µM; with HOP-92 NSCLC it was 31.3 µM; with KM12 colon, 59.5 µM; with MOLT-4 leukemia, 62.6 µM; in the test with NCI-H226 lung, 42.6 µM. In addition, the TGI with TK-10 renal is above 100 µM; in the test on UACC-62 melanoma, 28.8 µM.

As to `CCCCCCCCOCC(O)COC` (configuration not stated), the TGI with COLO 205 colon, with HCC-2998 colon, in the test with HOP-92 NSCLC, in the test with MOLT-4 leukemia, in the test on NCI-H226 lung and in the test on TK-10 renal was above 100 µM in each case. This molecule also had a TGI in the test on UACC-62 melanoma above 100 µM.

In the case of `COC(=O)C1=C(O)C(C(=O)OC)[C@@]2(O)[C@@H](C(=O)OC)C(c3ccccc3C(F)(F)F)C[C@@H]1[C@@H]2C(=O)OC` (some centres not stated), the GI50 was 0.175 µM with COLO 205 colon; 14.2 µM in the test on HCC-2998 colon; 15.8 µM in the test on HOP-92 NSCLC; 16.9 µM in the test on KM12 colon; 1.88 µM with MOLT-4 leukemia; 16.8 µM with NCI-H522 lung. Besides, the GI50 was 2.14 µM in the test on SF-539 CNS, 12.1 µM in the test with TK-10 renal and 4.09 µM in the test on UACC-62 melanoma. Moreover, the TGI in the test on COLO 205 colon was found to be 2.27 µM; in the test on HCC-2998 colon it was 27.2 µM; in the test on HOP-92 NSCLC, 37.9 µM; in the test with KM12 colon, 32.8 µM; in the test on MOLT-4 leukemia, 6.97 µM; in the test on NCI-H522 lung, 33.2 µM. For the same molecule, the TGI in the test with SF-539 CNS turned out to be 5.71 µM; with TK-10 renal it was 25.5 µM; with UACC-62 melanoma, 15 µM.

For the molecule `NNC(=S)N/N=C(\c1nc2ccc(Cl)cc2[nH]c1=O)C(O)c1ccc(Cl)cc1Cl` (configuration not stated), the TGI in the test with COLO 205 colon, in the test with HOP-92 NSCLC, in the test on KM12 colon, with MOLT-4 leukemia, with NCI-H226 lung and in the test on NCI-H522 lung was above 100 µM in each case. In addition, the TGI in the test on SF-539 CNS, in the test with TK-10 renal and with UACC-62 melanoma was above 100 µM throughout.

Take `CC(=O)OCC1OC(n2c(-c3ccc(N)cc3)cc(-c3ccco3)c(C#N)c2=O)C(OC(C)=O)C(OC(C)=O)C1OC(C)=O` (configuration not stated): the TGI in the test with COLO 205 colon is above 50 µM; with HCC-2998 colon it was above 50 µM; in the test with HOP-92 NSCLC it was 33.9 µM; in the test on KM12 colon it was above 50 µM; with MOLT-4 leukemia it was above 50 µM; in the test with NCI-H522 lung it was above 50 µM. The values for the TGI in the test on SF-539 CNS, in the test with TK-10 renal and in the test on UACC-62 melanoma were 30.2 µM, above 50 µM and above 50 µM, respectively.

For `COc1cc(OC)cc(-c2n[nH]nc2-c2ccc3c(c2)OCO3)c1`, the GI50 is 2.15 µM in the test on HCC-2998 colon; 0.122 µM in the test on HOP-92 NSCLC; 0.07 µM in the test on KM12 colon; 0.572 µM with MOLT-4 leukemia; 5.15 µM in the test on NCI-H226 lung; 0.181 µM with SF-539 CNS. Further, the values for the GI50 in the test on TK-10 renal and in the test with UACC-62 melanoma were 17.6 µM and 3.09 µM, respectively. Further, the TGI in the test on HCC-2998 colon is 24.6 µM; in the test with HOP-92 NSCLC, 1.59 µM; in the test on KM12 colon, 11.9 µM; in the test on MOLT-4 leukemia it was 51.8 µM; in the test with NCI-H226 lung, above 100 µM; in the test on SF-539 CNS, 0.546 µM. The TGI with TK-10 renal is above 100 µM; with UACC-62 melanoma, 30.8 µM.

`O=C(O)CSc1ccn(Cc2ccccc2)c1`: the TGI in the test with COLO 205 colon, in the test on HOP-92 NSCLC, with KM12 colon, in the test with MOLT-4 leukemia, in the test on NCI-H226 lung and in the test with NCI-H522 lung was above 100 µM throughout. The TGI with SF-539 CNS, in the test with TK-10 renal and in the test with UACC-62 melanoma was above 100 µM in each case.

Turning to `O=C(Nc1ccc(Cl)cc1Cl)c1c/c(=N\O)c2ccc(O)cc2o1`, the TGI with COLO 205 colon, in the test with HOP-92 NSCLC, with KM12 colon, with MOLT-4 leukemia, in the test on NCI-H226 lung and in the test on NCI-H522 lung was above 100 µM throughout. For the same molecule, the TGI in the test on SF-539 CNS, in the test on TK-10 renal and in the test on UACC-62 melanoma was above 100 µM throughout.

With `C=C1c2c(C)nn(-c3ccccc3)c2N(C)C23C[C@@H]1C1(C)c4c(C)nn(-c5ccccc5)c4N(C)C(C)(C[C@H]12)C3` (some centres not stated), the GI50 is 6.21 µM in the test with HCC-2998 colon; 0.549 µM with HOP-92 NSCLC; 15.3 µM in the test with NCI-H226 lung; 2.12 µM in the test on NCI-H522 lung; 26.7 µM in the test on SF-539 CNS; 4.77 µM in the test on TK-10 renal. Also, the GI50 in the test with UACC-62 melanoma was 4.38 µM. In addition, the TGI with HCC-2998 colon is above 100 µM; in the test with HOP-92 NSCLC, 5.53 µM; in the test on NCI-H226 lung, above 100 µM; in the test on NCI-H522 lung, 7.73 µM; in the test with SF-539 CNS it was above 100 µM; in the test on TK-10 renal it was 24.5 µM. For the same molecule, in the test on UACC-62 melanoma, the TGI was above 100 µM.

Consider `COc1ccc(/C=N\N2C(=O)Cc3ccccc32)cc1`, for which the TGI in the test with COLO 205 colon is above 100 µM; with HCC-2998 colon it was above 100 µM; in the test on HOP-92 NSCLC, 85.5 µM; with KM12 colon, above 100 µM; in the test with MOLT-4 leukemia, above 100 µM; in the test with NCI-H226 lung, above 100 µM. The TGI in the test with SF-539 CNS, in the test with TK-10 renal and with UACC-62 melanoma was above 100 µM in each case.

Turning to `COc1ccc(/C(C#N)=C/c2nc3c(N4CCOCC4)nc(Cl)nc3n2C)cc1OC`, the GI50 in the test on COLO 205 colon is 0.0172 µM; with HCC-2998 colon, 0.0163 µM; with HOP-92 NSCLC, 0.246 µM; in the test on KM12 colon it was below 0.01 µM; in the test with MOLT-4 leukemia it was 0.0251 µM; with NCI-H522 lung, below 0.01 µM. The values for the GI50 in the test with SF-539 CNS, in the test on TK-10 renal and with UACC-62 melanoma were below 0.01 µM, 0.924 µM and below 0.01 µM, respectively. Besides, the TGI was found to be 0.0424 µM in the test on COLO 205 colon; 1.22 µM in the test on HCC-2998 colon; 2.94 µM in the test on HOP-92 NSCLC; 1.26 µM with KM12 colon; 2.89 µM with MOLT-4 leukemia; 1.28 µM with NCI-H522 lung. Besides, the TGI in the test with SF-539 CNS is below 0.01 µM; in the test on TK-10 renal, 2.33 µM; in the test on UACC-62 melanoma, 1.68 µM.
